Tested on: 941728-121-R-J1-PDC complex spheroid viability
Test: Anticancer human tumor 941728-121-R-J1-PDC patient-derived lung adenocarcinoma cell line growth inhibition [RAS]
Conditions: for IC50: curve of first compound; for viability, T/C: stronger effect = lower value
Method in brief: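 Agents were tested in combination matrices in half-log decrements from a top concentration at or near clinical Cmax (10 microM if undetermined). Targets were multi-cell spheroids of tumour lines plus HUVEC and MSC stromal cells.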

[1] = second compound 0.000949 µM, first compound 0.0316 µM
[2] = second compound 0.000949 µM, first compound 0.1 µM
[3] = second compound 0.000949 µM, first compound 0.316 µM
[4] = second compound 0.000949 µM, first compound 1 µM
[5] = second compound 0.000949 µM, first compound 3.16 µM
[6] = second compound 0.000949 µM, first compound 10 µM
[7] = second compound 0.003 µM, first compound 0.0316 µM
[8] = second compound 0.003 µM, first compound 0.1 µM
[9] = second compound 0.003 µM, first compound 0.316 µM
[10] = second compound 0.003 µM, first compound 1 µM
[11] = second compound 0.003 µM, first compound 3.16 µM
[12] = second compound 0.003 µM, first compound 10 µM
[13] = second compound 0.00949 µM, first compound 0.0316 µM
[14] = second compound 0.00949 µM, first compound 0.1 µM
[15] = second compound 0.00949 µM, first compound 0.316 µM
[16] = second compound 0.00949 µM, first compound 1 µM
[17] = second compound 0.00949 µM, first compound 3.16 µM
[18] = second compound 0.00949 µM, first compound 10 µM
[19] = second compound 0.03 µM, first compound 0.0316 µM
[20] = second compound 0.03 µM, first compound 0.1 µM
[21] = second compound 0.03 µM, first compound 0.316 µM
[22] = second compound 0.03 µM, first compound 1 µM
[23] = second compound 0.03 µM, first compound 3.16 µM
[24] = second compound 0.03 µM, first compound 10 µM
[25] = second compound 0.0949 µM, first compound 0.0316 µM
[26] = second compound 0.0949 µM, first compound 0.1 µM
[27] = second compound 0.0949 µM, first compound 0.316 µM
[28] = second compound 0.0949 µM, first compound 1 µM
[29] = second compound 0.0949 µM, first compound 3.16 µM
[30] = second compound 0.0949 µM, first compound 10 µM
[31] = second compound 0.3 µM, first compound 0.0316 µM
[32] = second compound 0.3 µM, first compound 0.1 µM
[33] = second compound 0.3 µM, first compound 0.316 µM
[34] = second compound 0.3 µM, first compound 1 µM
[35] = second compound 0.3 µM, first compound 3.16 µM
[36] = second compound 0.3 µM, first compound 10 µM
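Also: spheroids exposed to compounds for 7 days before readout.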
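For viability, T/C in this document: 100% = DMSO vehicle control viability.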

CC1(O)CCCC1n1c(=O)c(C(F)F)cc2cnc(NC3CCN(S(C)(=O)=O)CC3)nc21 (stereo not given) + CCn1c(-c2cccnc2C(C)OC)c2c3cc(ccc31)N1CCOC(CC(NC(=O)C(C(C)C)N(C)C(=O)C3(F)CCN(C(=O)C#CC(C)(C)N(C)C)CC3)C(=O)N3CCCC(N3)C(=O)OCC(C)(C)C2)C1
IC50 (second compound 0.000949 µM): < 31.6 nM
IC50 (second compound 0.003 µM): < 31.6 nM
IC50 (second compound 0.00949 µM): < 31.6 nM
IC50 (second compound 0.03 µM): < 31.6 nM
IC50 (second compound 0.0949 µM): < 31.6 nM
IC50 (second compound 0.3 µM): < 31.6 nM
viability, T/C [1]: 22.3%
viability, T/C [2]: 23.9%
viability, T/C [3]: 24.1%
viability, T/C [4]: 24.3%
viability, T/C [5]: 26%
viability, T/C [6]: 29.7%
viability, T/C [7]: 24%
viability, T/C [8]: 20.8%
viability, T/C [9]: 24.2%
viability, T/C [10]: 25.1%
viability, T/C [11]: 24.6%
viability, T/C [12]: 30.1%
viability, T/C [13]: 21.4%
viability, T/C [14]: 26.1%
viability, T/C [15]: 21.9%
viability, T/C [16]: 24.4%
viability, T/C [17]: 22.6%
viability, T/C [18]: 30.1%
viability, T/C [19]: 23.1%
viability, T/C [20]: 23%
viability, T/C [21]: 23.6%
viability, T/C [22]: 27.4%
viability, T/C [23]: 20.1%
viability, T/C [24]: 31%
viability, T/C [25]: 21.5%
viability, T/C [26]: 22.3%
viability, T/C [27]: 26.5%
viability, T/C [28]: 27.9%
viability, T/C [29]: 17.9%
viability, T/C [30]: 28.8%
viability, T/C [31]: 22.5%
viability, T/C [32]: 23.4%
viability, T/C [33]: 23%
viability, T/C [34]: 26.1%
viability, T/C [35]: 20.8%
viability, T/C [36]: 25.9%

CCC(CC)c1cc(NC2CCC(N)C2)n2nccc2n1 (stereo not given) + CCn1c(-c2cccnc2C(C)OC)c2c3cc(ccc31)N1CCOC(CC(NC(=O)C(C(C)C)N(C)C(=O)C3(F)CCN(C(=O)C#CC(C)(C)N(C)C)CC3)C(=O)N3CCCC(N3)C(=O)OCC(C)(C)C2)C1
IC50 (second compound 0.000949 µM): < 31.6 nM
IC50 (second compound 0.003 µM): < 31.6 nM
IC50 (second compound 0.00949 µM): < 31.6 nM
IC50 (second compound 0.03 µM): < 31.6 nM
IC50 (second compound 0.0949 µM): < 31.6 nM
IC50 (second compound 0.3 µM): < 31.6 nM
viability, T/C [1]: 24.2%
viability, T/C [2]: 25.9%
viability, T/C [3]: 22.9%
viability, T/C [4]: 31.1%
viability, T/C [5]: 14.9%
viability, T/C [6]: 32.4%
viability, T/C [7]: 23.2%
viability, T/C [8]: 24.3%
viability, T/C [9]: 23%
viability, T/C [10]: 29.3%
viability, T/C [11]: 12.1%
viability, T/C [12]: 39%
viability, T/C [13]: 25.1%
viability, T/C [14]: 23.2%
viability, T/C [15]: 24.5%
viability, T/C [16]: 31.1%
viability, T/C [17]: 13.7%
viability, T/C [18]: 40.9%
viability, T/C [19]: 23%
viability, T/C [20]: 25.1%
viability, T/C [21]: 27.3%
viability, T/C [22]: 33.5%
viability, T/C [23]: 14.6%
viability, T/C [24]: 45%
viability, T/C [25]: 21.5%
viability, T/C [26]: 24.5%
viability, T/C [27]: 29%
viability, T/C [28]: 32.5%
viability, T/C [29]: 16.1%
viability, T/C [30]: 48.7%
viability, T/C [31]: 23.3%
viability, T/C [32]: 26.9%
viability, T/C [33]: 31.1%
viability, T/C [34]: 33.1%
viability, T/C [35]: 13.1%
viability, T/C [36]: 44.8%

CCN1CCN(Cc2ccc(Nc3ncc(F)c(-c4cc(F)c5nc(C)n(C(C)C)c5c4)n3)nc2)CC1 + CCn1c(-c2cccnc2C(C)OC)c2c3cc(ccc31)N1CCOC(CC(NC(=O)C(C(C)C)N(C)C(=O)C3(F)CCN(C(=O)C#CC(C)(C)N(C)C)CC3)C(=O)N3CCCC(N3)C(=O)OCC(C)(C)C2)C1
IC50 (second compound 0.000949 µM): < 3.16 nM
IC50 (second compound 0.003 µM): < 3.16 nM
IC50 (second compound 0.00949 µM): < 3.16 nM
IC50 (second compound 0.03 µM): < 3.16 nM
IC50 (second compound 0.0949 µM): < 3.16 nM
IC50 (second compound 0.3 µM): < 3.16 nM
viability, T/C (second compound 0.000949 µM, first compound 0.00316 µM): 22.2%
viability, T/C (second compound 0.000949 µM, first compound 0.01 µM): 23.4%
viability, T/C [1]: 16.8%
viability, T/C [2]: 16.1%
viability, T/C [3]: 16.6%
viability, T/C [4]: 12.2%
viability, T/C (second compound 0.003 µM, first compound 0.00316 µM): 22.9%
viability, T/C (second compound 0.003 µM, first compound 0.01 µM): 19.3%
viability, T/C [7]: 17.4%
viability, T/C [8]: 19.3%
viability, T/C [9]: 17.3%
viability, T/C [10]: 11.3%
viability, T/C (second compound 0.00949 µM, first compound 0.00316 µM): 21.3%
viability, T/C (second compound 0.00949 µM, first compound 0.01 µM): 21.9%
viability, T/C [13]: 19.8%
viability, T/C [14]: 17.7%
viability, T/C [15]: 15.8%
viability, T/C [16]: 12.9%
viability, T/C (second compound 0.03 µM, first compound 0.00316 µM): 24.5%
viability, T/C (second compound 0.03 µM, first compound 0.01 µM): 21.8%
viability, T/C [19]: 18%
viability, T/C [20]: 19.2%
viability, T/C [21]: 13.6%
viability, T/C [22]: 17.5%
viability, T/C (second compound 0.0949 µM, first compound 0.00316 µM): 21.9%
viability, T/C (second compound 0.0949 µM, first compound 0.01 µM): 23.3%
viability, T/C [25]: 19.8%
viability, T/C [26]: 16.3%
viability, T/C [27]: 11.7%
viability, T/C [28]: 15.8%
viability, T/C (second compound 0.3 µM, first compound 0.00316 µM): 21.2%
viability, T/C (second compound 0.3 µM, first compound 0.01 µM): 21.9%
viability, T/C [31]: 21.3%
viability, T/C [32]: 16.3%
viability, T/C [33]: 16%
viability, T/C [34]: 17.9%

C[C@@H](NC(=O)c1ncnc(N)c1Cl)c1ncc(C(=O)Nc2cc(C(F)(F)F)c(Cl)cn2)s1 + CCn1c(-c2cccnc2C(C)OC)c2c3cc(ccc31)N1CCOC(CC(NC(=O)C(C(C)C)N(C)C(=O)C3(F)CCN(C(=O)C#CC(C)(C)N(C)C)CC3)C(=O)N3CCCC(N3)C(=O)OCC(C)(C)C2)C1
IC50 (second compound 0.000949 µM): < 31.6 nM
IC50 (second compound 0.003 µM): < 31.6 nM
IC50 (second compound 0.00949 µM): < 31.6 nM
IC50 (second compound 0.03 µM): < 31.6 nM
IC50 (second compound 0.0949 µM): < 31.6 nM
IC50 (second compound 0.3 µM): < 31.6 nM
viability, T/C [1]: 25.9%
viability, T/C [2]: 26.5%
viability, T/C [3]: 20.4%
viability, T/C [4]: 26.4%
viability, T/C [5]: 24.6%
viability, T/C [6]: 16.7%
viability, T/C [7]: 21.6%
viability, T/C [8]: 20.3%
viability, T/C [9]: 19.4%
viability, T/C [10]: 23.7%
viability, T/C [11]: 23.5%
viability, T/C [12]: 17.9%
viability, T/C [13]: 22.9%
viability, T/C [14]: 19.8%
viability, T/C [15]: 24.6%
viability, T/C [16]: 22.4%
viability, T/C [17]: 21%
viability, T/C [18]: 19.9%
viability, T/C [19]: 23.9%
viability, T/C [20]: 20.6%
viability, T/C [21]: 26.3%
viability, T/C [22]: 23.1%
viability, T/C [23]: 17.4%
viability, T/C [24]: 21.6%
viability, T/C [25]: 21.7%
viability, T/C [26]: 24%
viability, T/C [27]: 22.6%
viability, T/C [28]: 24.4%
viability, T/C [29]: 21.2%
viability, T/C [30]: 22.2%
viability, T/C [31]: 22.6%
viability, T/C [32]: 26%
viability, T/C [33]: 23.2%
viability, T/C [34]: 25.1%
viability, T/C [35]: 21.9%
viability, T/C [36]: 20.1%

Cc1nc(N2CCC3(CC2)COC(C)C3N)c(CO)nc1Sc1ccnc(N)c1Cl (stereo not given) + CCn1c(-c2cccnc2C(C)OC)c2c3cc(ccc31)N1CCOC(CC(NC(=O)C(C(C)C)N(C)C(=O)C3(F)CCN(C(=O)C#CC(C)(C)N(C)C)CC3)C(=O)N3CCCC(N3)C(=O)OCC(C)(C)C2)C1
IC50 (second compound 0.000949 µM): < 31.6 nM
IC50 (second compound 0.003 µM): < 31.6 nM
IC50 (second compound 0.00949 µM): < 31.6 nM
IC50 (second compound 0.03 µM): < 31.6 nM
IC50 (second compound 0.0949 µM): < 31.6 nM
IC50 (second compound 0.3 µM): < 31.6 nM
viability, T/C [1]: 21.6%
viability, T/C [2]: 20.3%
viability, T/C [3]: 13.3%
viability, T/C [4]: 18.1%
viability, T/C [5]: 19.1%
viability, T/C [6]: 14.4%
viability, T/C [7]: 21.7%
viability, T/C [8]: 20.4%
viability, T/C [9]: 14.2%
viability, T/C [10]: 17.5%
viability, T/C [11]: 18.1%
viability, T/C [12]: 13.7%
viability, T/C [13]: 20.1%
viability, T/C [14]: 16.8%
viability, T/C [15]: 16.8%
viability, T/C [16]: 18.4%
viability, T/C [17]: 15.7%
viability, T/C [18]: 15.6%
viability, T/C [19]: 19.7%
viability, T/C [20]: 19%
viability, T/C [21]: 17.5%
viability, T/C [22]: 15.7%
viability, T/C [23]: 13.1%
viability, T/C [24]: 17.6%
viability, T/C [25]: 21.4%
viability, T/C [26]: 20.7%
viability, T/C [27]: 19.9%
viability, T/C [28]: 17.3%
viability, T/C [29]: 15.2%
viability, T/C [30]: 19.6%
viability, T/C [31]: 22.1%
viability, T/C [32]: 20.9%
viability, T/C [33]: 20.6%
viability, T/C [34]: 18.3%
viability, T/C [35]: 18.8%
viability, T/C [36]: 23.2%

— PubChem BioAssay AID2060896 (Molecular Pharmacology Branch, DTP, NCI, 2025)
